# Reference: patent US20190119270A1, “N-Oxide Compound and Its Use in Treating Cancer” (AstraZeneca AB, priority 2016, published 2019)
# How the values were obtained:
# Assay type in all cases: cell-based
# ATM = molecular target: T1, ATM (Homo sapiens, UniProt Q13315); test: ATM cellular potency assay (pATM Ser1981 in irradiated HT29 cells); settings: X-ray irradiation, pATM (Ser1981); read-out: Assay a) ATM Cell IC50
# T1 construct: endogenous in cells; host or cells: HT29 cells (ECACC #85061109)
# Excerpt: Cellular irradiation induces DNA double strand breaks and rapid intermolecular autophosphorylation of serine 1981 that causes dimer dissociation and initiates cellular ATM kinase activity. Most ATM molecules in the cell are rapidly phosphorylated on this site after doses of radiation as low as 0.5 Gy, and binding of a phosphospecific antibody is detectable after the introduction of only a few DNA double-strand breaks in the cell.
# The rationale of the pATM assay is to identify inhibitors of ATM in cells. HT29 cells are incubated with test compounds for lhr prior to X-ray-irradiation. 1 h later the cells are fixed and stained for pATM (Ser1981). The fluorescence is read on the arrayscan imaging platform.
# HT29 cells (ECACC #85061109) were seeded into 384 well assay plates (Costar #3712) at a density of 3500 cells/well in 40 μl EMEM medium containing 1% L glutamine and 10% FBS and allowed to adhere overnight. […]
# Phospho-ATM Ser1981 antibody (Millipore #MAB3806) was diluted 10000 fold in PBS containing 0.05% polysorbate/Tween and 3% BSA and 20 μl was added to each well and incubated over night at r.t. […] After 1 h incubation at r.t., the plates were washed three times with 50 μl/well PBS, using a Biotek EL405 plate washer, and plates were sealed and kept in PBS at 4° C. until read. Plates were read using an ArrayScan VTI instrument, using an XF53 filter with 10× objective. […]
# PI3Kα = PI3Kα (Homo sapiens, UniProt P42336); test: PI3K cellular potency assay (phospho-Akt T308 ELISA in BT474 cells); settings: 2 h, phospho-Akt (T308); read-out: Assay c) PI3Kα Cell IC50
# Excerpt: This assay was used to measure PI3K-a inhibition in cells. PDK1 was identified as the upstream activation loop kinase of protein kinase B (Akt1), which is essential for the activation of PKB. Activation of the lipid kinase phosphoinositide 3 kinase (PI3K) is critical for the activation of PKB by PDK1.
# Following ligand stimulation of receptor tyrosine kinases, PI3K is activated, which converts PIP2 to PIP3, which is bound by the PH domain of PDK1 resulting in recruitment of PDK1 to the plasma membrane where it phosphorylates AKT at Thr308 in the activation loop.
# The aim of this cell-based mode of action assay is to identify compounds that inhibit PDK activity or recruitment of PDK1 to membrane by inhibiting PI3K activity. Phosphorylation of phospho-Akt (T308) in BT474c cells following treatment with compounds for 2 h is a direct measure of PDK1 and indirect measure of PI3K activity. […]
# After 20 minutes, the cell lysates were transferred into ELISA plates (Greiner #781077) which had been pre-coated with an anti total-AKT antibody in PBS buffer and non-specific binding was blocked with 1% BSA in PBS containing 0.05% Tween 20. […] Plates were read using a Tecan Safire plate reader using 325 nm excitation and 420 nm emission wavelengths respectively. […]
# ATR = molecular target: T2, ATR (Homo sapiens, UniProt Q13535); test: ATR cellular potency assay (pChk1 Ser345 in HT29 cells with 4NQO); settings: pChk1 (Ser 345); read-out: Assay b) ATR Cell IC50
# T2 construct: endogenous in cells; host or cells: HT29 cells (ECACC #85061109)
# Excerpt: ATR is a PI 3-kinase-related kinase which phosphorylates multiple substrates on serine or threonine residues in response to DNA damage during or replication blocks. Chk1, a downstream protein kinase of ATR, plays a key role in DNA damage checkpoint control. Activation of Chk1 involves phosphorylation of Ser317 and Ser345 (the latter regarded as the preferential target for phosphorylation/activation by ATR). This was a cell based assay to measure inhibition of ATR kinase, by measuring a decrease in phosphorylation of Chk1 (Ser 345) in HT29 cells, following treatment with compound of Formula (I) and the UV mimetic 4NQO (Sigma #N8141).
# HT29 cells (ECACC #85061109) were seeded into 384 well assay plates (Costar #3712) at a density of 6000 cells/well in 40 μl EMEM medium containing 1% L glutamine and 10% FBS and allowed to adhere overnight. […]
# Phospho-Chk1 Ser 345 antibody (Cell Signalling Technology #2348) was diluted 150 fold in PBS containing 0.05% polysorbate/Tween and 15 μl was added to each well and incubated over night at r.t. […] After 2 h incubation at r.t., the plates were washed three times with 50 μl/well PBS, using a Biotek EL405 plate washer, and plates were then sealed with black plate seals until read. Plates were read using an ArrayScan VTI instrument, using an XF53 filter with 10× objective. […]
# mTOR = molecular target: T3, mTOR (Homo sapiens, UniProt P42345); test: mTOR cellular potency assay (phospho-AKT Ser473 in MDA-MB-468 cells); settings: 2 hours, phospho-AKT (Ser473), protocol A or B; read-out: Assay d) mTOR Cell IC50
# T3 construct: endogenous in cells; host or cells: MDA-MB-468 cells
# Experimental: The phospho-AKTser473 cell assay was performed in the MDA-MB-468 cell line, a PTEN null breast adenocarcinoma human cell line. As a consequence of the lack of PTEN, pAKT is constitutively activated which eliminates the requirement for stimulation to induce phosphorylation.
# MDA-MB-468 cells were cultured in cell media composed of DMEM (Dulbecco's modified Eagle's medium #D6546)), 10% (v/v) Foetal Calf Serum and 1% (v/v) L-Glutamine. After harvesting, cells were dispensed into black, 384-well Costar plates (#3712, Corning) to give 1500 cells per well in a total volume of 40 μl cell media, and were incubated overnight at 37° C., 90% relative humidity and 5% CO2 in a rotating incubator. […]
# Stained cell plates were covered with black seals, and then read on the Acumen (TTP Labtech) plate reader. The primary channel (green fluorescence, 488 nm) is used to set the intensity settings for the max/min cut off to allow for weekly variation in staining and the ‘AKT+: No of objects (No)’ data is used for the analysis. Data was analysed and IC50s were calculated using Genedata Screener® software. […]
# Stained cell plates were covered with black seals, and then read on the Cell Insight imaging platform (Thermo Scientific), with a 10× objective. […] The secondary channel (Green […], BGRFR_485_20) measures pAKT staining Data was analysed and IC5os were calculated using Genedata Screener® software.
# Sequence of PI3Kα (P27986 2-724): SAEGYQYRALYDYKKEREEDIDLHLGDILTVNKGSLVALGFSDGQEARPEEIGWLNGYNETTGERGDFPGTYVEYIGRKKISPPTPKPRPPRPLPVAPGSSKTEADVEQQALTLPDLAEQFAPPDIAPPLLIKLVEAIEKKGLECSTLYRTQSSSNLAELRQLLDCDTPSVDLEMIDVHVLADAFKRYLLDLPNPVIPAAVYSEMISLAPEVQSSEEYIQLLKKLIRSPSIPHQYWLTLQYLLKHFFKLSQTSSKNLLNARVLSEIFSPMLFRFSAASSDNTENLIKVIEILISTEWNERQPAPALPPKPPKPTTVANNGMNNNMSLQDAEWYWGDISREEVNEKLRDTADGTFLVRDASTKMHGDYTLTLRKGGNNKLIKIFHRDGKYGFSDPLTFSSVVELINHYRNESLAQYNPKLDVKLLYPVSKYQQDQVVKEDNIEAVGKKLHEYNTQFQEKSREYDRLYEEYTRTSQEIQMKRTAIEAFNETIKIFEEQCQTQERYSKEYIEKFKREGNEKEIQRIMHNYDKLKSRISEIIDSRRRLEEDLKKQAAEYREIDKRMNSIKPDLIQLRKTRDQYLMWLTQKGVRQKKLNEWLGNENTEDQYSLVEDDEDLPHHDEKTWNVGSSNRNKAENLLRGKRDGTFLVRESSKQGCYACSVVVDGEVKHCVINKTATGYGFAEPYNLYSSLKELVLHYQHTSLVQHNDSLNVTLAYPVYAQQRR
# Sequence of PI3Kα (P42336 whole entry): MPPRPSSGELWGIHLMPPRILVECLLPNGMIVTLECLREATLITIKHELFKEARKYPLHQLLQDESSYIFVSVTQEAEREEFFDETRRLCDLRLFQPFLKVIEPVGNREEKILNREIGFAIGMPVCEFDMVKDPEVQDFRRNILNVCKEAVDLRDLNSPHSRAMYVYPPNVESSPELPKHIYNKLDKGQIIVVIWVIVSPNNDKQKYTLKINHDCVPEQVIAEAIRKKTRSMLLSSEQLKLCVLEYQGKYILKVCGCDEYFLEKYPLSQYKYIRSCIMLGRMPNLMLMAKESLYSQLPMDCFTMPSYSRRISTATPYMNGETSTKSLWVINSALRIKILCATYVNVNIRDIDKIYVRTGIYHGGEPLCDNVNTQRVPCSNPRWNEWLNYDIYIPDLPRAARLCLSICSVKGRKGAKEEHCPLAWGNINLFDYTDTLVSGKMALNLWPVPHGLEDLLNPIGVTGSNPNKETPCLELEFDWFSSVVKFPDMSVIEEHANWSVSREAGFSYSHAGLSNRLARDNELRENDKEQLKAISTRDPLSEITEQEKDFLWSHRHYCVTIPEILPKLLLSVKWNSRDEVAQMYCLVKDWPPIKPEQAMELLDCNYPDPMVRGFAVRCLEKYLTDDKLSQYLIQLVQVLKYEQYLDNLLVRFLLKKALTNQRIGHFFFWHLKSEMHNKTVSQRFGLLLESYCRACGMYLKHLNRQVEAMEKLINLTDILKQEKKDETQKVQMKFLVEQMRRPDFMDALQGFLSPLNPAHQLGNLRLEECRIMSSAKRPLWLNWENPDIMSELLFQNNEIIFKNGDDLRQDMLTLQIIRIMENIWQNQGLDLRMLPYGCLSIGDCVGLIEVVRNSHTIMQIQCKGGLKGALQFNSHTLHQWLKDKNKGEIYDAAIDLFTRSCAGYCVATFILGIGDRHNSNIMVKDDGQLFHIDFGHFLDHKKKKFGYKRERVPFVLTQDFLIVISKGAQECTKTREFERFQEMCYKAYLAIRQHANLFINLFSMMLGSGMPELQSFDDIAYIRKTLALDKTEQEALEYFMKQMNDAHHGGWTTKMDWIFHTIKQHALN
# T1 sequence (Q13315 whole entry): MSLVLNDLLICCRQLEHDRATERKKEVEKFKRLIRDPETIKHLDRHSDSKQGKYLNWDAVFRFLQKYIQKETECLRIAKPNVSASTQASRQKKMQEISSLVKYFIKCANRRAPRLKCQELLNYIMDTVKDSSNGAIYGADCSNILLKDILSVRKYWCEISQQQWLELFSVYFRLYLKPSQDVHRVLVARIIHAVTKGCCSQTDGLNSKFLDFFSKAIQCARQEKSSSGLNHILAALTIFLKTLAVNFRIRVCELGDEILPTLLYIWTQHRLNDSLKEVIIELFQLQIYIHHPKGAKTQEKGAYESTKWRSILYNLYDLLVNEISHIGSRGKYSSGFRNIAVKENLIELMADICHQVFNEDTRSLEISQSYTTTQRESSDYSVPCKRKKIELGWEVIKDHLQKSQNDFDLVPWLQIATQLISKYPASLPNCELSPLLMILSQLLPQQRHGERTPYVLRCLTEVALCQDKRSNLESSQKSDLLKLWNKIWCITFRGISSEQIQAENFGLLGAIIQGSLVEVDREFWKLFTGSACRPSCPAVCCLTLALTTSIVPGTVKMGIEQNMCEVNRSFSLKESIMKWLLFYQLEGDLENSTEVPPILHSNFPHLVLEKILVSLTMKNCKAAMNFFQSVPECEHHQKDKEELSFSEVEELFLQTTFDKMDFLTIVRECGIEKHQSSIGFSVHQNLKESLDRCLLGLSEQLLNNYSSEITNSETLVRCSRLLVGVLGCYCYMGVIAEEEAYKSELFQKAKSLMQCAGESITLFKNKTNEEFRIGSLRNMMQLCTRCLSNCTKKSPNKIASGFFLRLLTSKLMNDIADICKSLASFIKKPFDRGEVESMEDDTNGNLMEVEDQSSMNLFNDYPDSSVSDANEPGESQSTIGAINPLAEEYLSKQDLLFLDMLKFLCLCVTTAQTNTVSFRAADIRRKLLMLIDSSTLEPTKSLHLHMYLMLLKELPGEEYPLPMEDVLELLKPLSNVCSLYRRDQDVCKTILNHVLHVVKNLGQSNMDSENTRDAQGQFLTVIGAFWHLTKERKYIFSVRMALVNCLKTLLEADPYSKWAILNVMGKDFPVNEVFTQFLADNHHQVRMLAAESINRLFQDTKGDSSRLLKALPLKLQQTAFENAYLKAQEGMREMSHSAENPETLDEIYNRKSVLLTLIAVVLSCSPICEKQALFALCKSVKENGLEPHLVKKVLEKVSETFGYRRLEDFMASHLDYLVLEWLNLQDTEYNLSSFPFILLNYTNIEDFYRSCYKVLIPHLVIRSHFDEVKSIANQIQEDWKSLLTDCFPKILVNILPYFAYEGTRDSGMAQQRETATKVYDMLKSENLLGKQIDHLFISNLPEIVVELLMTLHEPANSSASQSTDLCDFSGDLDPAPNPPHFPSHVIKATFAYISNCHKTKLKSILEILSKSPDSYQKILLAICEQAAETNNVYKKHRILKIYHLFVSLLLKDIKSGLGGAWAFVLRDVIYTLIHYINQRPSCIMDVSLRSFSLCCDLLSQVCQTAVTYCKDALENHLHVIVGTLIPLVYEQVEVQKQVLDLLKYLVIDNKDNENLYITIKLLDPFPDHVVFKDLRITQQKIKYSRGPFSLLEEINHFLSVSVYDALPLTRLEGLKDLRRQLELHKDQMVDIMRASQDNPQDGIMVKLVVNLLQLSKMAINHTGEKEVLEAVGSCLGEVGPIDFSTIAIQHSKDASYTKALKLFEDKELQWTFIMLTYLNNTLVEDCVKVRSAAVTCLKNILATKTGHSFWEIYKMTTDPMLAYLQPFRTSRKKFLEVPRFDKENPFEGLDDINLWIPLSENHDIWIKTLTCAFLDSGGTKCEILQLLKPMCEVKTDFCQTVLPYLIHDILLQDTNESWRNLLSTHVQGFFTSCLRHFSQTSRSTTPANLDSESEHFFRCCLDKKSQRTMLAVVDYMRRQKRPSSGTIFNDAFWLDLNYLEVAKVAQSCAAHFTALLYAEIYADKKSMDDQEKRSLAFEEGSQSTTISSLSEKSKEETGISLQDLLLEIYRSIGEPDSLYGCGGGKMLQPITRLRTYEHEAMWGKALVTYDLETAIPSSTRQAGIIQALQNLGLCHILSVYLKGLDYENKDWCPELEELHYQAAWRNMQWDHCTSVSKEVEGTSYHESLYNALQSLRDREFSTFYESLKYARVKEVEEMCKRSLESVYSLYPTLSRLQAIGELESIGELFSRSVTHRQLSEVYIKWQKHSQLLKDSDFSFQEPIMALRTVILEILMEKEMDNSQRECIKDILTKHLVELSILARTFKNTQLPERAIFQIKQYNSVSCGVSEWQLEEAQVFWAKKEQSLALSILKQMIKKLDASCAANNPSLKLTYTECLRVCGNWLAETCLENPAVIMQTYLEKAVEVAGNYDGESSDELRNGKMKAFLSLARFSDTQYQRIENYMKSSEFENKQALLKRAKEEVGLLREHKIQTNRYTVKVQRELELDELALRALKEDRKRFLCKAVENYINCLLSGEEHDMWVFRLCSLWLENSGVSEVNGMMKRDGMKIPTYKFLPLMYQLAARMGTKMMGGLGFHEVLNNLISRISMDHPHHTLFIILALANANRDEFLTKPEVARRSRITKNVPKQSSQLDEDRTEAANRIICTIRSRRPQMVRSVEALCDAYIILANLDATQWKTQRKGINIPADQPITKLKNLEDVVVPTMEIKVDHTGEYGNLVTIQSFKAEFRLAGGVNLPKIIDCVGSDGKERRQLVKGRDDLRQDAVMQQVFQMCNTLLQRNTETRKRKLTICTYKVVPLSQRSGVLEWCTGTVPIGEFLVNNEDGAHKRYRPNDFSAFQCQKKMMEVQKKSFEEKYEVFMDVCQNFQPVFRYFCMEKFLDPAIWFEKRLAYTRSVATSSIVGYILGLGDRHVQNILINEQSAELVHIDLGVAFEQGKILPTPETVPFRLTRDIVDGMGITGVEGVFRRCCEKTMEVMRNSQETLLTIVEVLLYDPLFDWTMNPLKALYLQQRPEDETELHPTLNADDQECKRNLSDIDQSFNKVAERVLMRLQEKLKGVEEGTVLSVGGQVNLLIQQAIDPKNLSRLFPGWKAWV
compound,measurement,setting,value
Cn1c(=O)n(C2CCOCC2)c2c3cc(-c4ccc(OCCC[N+](C)(C)[O-])nc4)ccc3ncc21 [Example 1],IC50,ATM,0.0054 µM
same,IC50,PI3Kα,17.8 µM
same,IC50,ATR,10.3 µM
same,IC50,mTOR,> 1.25 µM
